molecular target: T1, human FSH receptor (Homo sapiens, UniProt P23945)
T1 sequence (P23945 18-695): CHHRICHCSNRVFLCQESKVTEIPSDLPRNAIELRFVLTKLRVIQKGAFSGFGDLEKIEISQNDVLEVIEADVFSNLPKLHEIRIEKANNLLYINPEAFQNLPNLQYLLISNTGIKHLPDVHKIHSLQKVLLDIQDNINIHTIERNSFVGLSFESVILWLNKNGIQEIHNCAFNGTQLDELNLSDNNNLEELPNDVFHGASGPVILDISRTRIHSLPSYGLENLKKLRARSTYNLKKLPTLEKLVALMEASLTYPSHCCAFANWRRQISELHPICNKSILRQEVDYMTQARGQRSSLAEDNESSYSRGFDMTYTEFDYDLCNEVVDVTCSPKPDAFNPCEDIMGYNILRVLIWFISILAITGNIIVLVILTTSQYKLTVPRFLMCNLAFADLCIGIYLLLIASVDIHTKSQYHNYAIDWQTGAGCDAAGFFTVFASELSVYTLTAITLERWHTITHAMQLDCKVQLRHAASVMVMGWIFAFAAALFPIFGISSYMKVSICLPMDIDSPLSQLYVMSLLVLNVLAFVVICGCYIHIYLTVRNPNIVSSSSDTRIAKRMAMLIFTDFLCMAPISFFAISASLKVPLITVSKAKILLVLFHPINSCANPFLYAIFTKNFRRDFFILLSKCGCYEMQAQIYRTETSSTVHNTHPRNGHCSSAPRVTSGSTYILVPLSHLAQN
Procedure: Agonistic activity of compounds at the human FSH receptor expressed in CHO cells
Agonistic activity of the compounds at the human FSH receptor was determined in Chinese Hamster Ovary (CHO) cells stably transfected with the human FSH receptor and cotransfected with a cAMP responsive element (CRE)/promotor directing the expression of a firefly luciferase reporter gene. […] Cells (7,500 cells/well of a 384 well plate) were incubated in Dulbecco' minimal essential F12 modified medium (Invitrogen), supplemented with 1 µg/ml bovine insulin, 5 µg/ml human apotransferrin, 80 U/ml penicillin G and 80 µg/ml streptomycin with the test compounds (concentration between 0.0316 nM and 10.0 µM) in duplicate in a humidified atmosphere (95%) at 5-7% CO2 and 37°C. The final concentration of DMSO was 1%. After 4 hours of incubation, plates were allowed to adjust to room temperature for 1 hour. Then, Luclite (PerkinElmer) solution was added to the wells and cells were allowed to lyse for at least 1 hour at room temperature. Subsequently, luciferase activity was measured in a luminescence counter. The signal is expressed as counts per second (cps). The EC50 (concentration of the test compound that elicits half-maximal (50 %) luciferase stimulation compared to the compound's maximally attainable effect) and efficacy values (maximal effect of the test compound as percentage of the maximal effect of recombinant human FSH) of the compounds were determined using the software program MathIQ (version 2.0, ID Business Solutions Limited).
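Note: CHO cells stably expressing human FSH receptor with CRE-driven firefly luciferase, luminescence read as counts per second after 4 h compound exposure in 1% DMSO.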

Row | EC50 | Compound
1 | 1000 to 10000 nM | COc1cc2c(cc1OC)-c1c(c(C(=O)N(C)C(C)(C)C)nn1-c1ccc(F)cc1)CC2 [Example 1e, N-tert-butyl-1-(4-fluorophenyl)-7,8-dimethoxy-N-methyl-4,5-dihydro-1H-benzo[g]indazole-3-carboxamide]
2 | 1000 to 10000 nM | COc1cc2c(cc1OC)-c1c(c(C(=O)N3CCCN(C(C)=O)CC3)nn1-c1ccc(F)cc1)CC2 [Example 1f]
3 | 100 to 1000 nM | COc1cc2c(cc1OC)-c1c(c(C(=O)N3CCCN(C(=O)C4CCC4)CC3)nn1-c1ccc(F)cc1)CC2 [Example 1g]
4 | 1000 to 10000 nM | COc1cc2c(cc1OC(C)C)-c1c(c(C(=O)N(C)C(C)(C)C)nn1-c1nc3ccccc3s1)CC2 [Example 4d, 1-(benzo[d]thiazol-2-yl)-N-tert-butyl-8-isopropoxy-7-methoxy-N-methyl-4,5-dihydro-1H-benzo[g]indazole-3-carboxamide]
5 | 100 to 1000 nM | COc1cc2c(cc1OC(C)C)-c1c(c(C(=O)N(C)C(C)(C)C)nn1-c1cccnc1)CC2 [Example 6b, N-tert-butyl-8-isopropoxy-7-methoxy-N-methyl-1-(pyridin-3-yl)-4,5-dihydro-1H-benzo[g]indazole-3-carboxamide]
6 | 1000 to 10000 nM | C=CCc1cccc(-n2nc(C(=O)N(C)C(C)(C)C)c3c2-c2cc(OC(C)C)c(OC)cc2CC3)c1 [Example 7ca, 1-(3-allylphenyl)-N-tert-butyl-8-isopropoxy-7-methoxy-N-methyl-4,5-dihydro-1H-benzo[g]indazole-3-carboxamide]
7 | 1000 to 10000 nM | C=C(C)c1cccc(-n2nc(C(=O)N(C)C(C)(C)C)c3c2-c2cc(OC(C)C)c(OC)cc2CC3)c1 [Example 7cb, N-tert-butyl-8-isopropoxy-7-methoxy-N-methyl-1-(3-(prop-1-en-2-yl)phenyl)-4,5-dihydro-1H-benzo[g]indazole-3-carboxamide]
8 | 100 to 1000 nM | C=Cc1cccc(-n2nc(C(=O)N(C)C(C)(C)C)c3c2-c2cc(OC(C)C)c(OC)cc2CC3)c1 [Example 7cc, N-tert-butyl-8-isopropoxy-7-methoxy-N-methyl-1-(3-vinylphenyl)-4,5-dihydro-1H-benzo[g]indazole-3-carboxamide]
9 | 100 to 1000 nM | CCc1cccc(-n2nc(C(=O)N(C)C(C)(C)C)c3c2-c2cc(OC(C)C)c(OC)cc2CC3)c1 [Example 7cd, N-tert-butyl-1-(3-ethylphenyl)-8-isopropoxy-7-methoxy-N-methyl-4,5-dihydro-1H-benzo[g]indazole-3-carboxamide]
10 | 100 to 1000 nM | COc1cc2c(cc1OC(C)C)-c1c(c(C(=O)N(C)C(C)(C)C)nn1-c1cccc(C3CC3)c1)CC2 [Example 7cf, N-tert-butyl-1-(3-cyclopropylphenyl)-8-isopropoxy-7-methoxy-N-methyl-4,5-dihydro-1H-benzo[g]indazole-3-carboxamide]
11 | 1000 to 10000 nM | COc1cc2c(cc1OC(C)C)-c1c(c(C(=O)N(C)C(C)(C)C)nn1-c1cccc([N+](=O)[O-])c1)CC2 [Example 8ca, N-tert-butyl-8-isopropoxy-7-methoxy-N-methyl-1-(3-nitrophenyl)-4,5-dihydro-1H-benzo[g]indazole-3-carboxamide]
12 | 100 to 1000 nM | COc1cc2c(cc1OC(C)C)-c1c(c(C(=O)N(C)C(C)(C)C)nn1-c1cccc(F)c1)CC2 [Example 8cb, N-tert-butyl-1-(3-fluorophenyl)-8-isopropoxy-7-methoxy-N-methyl-4,5-dihydro-1H-benzo[g]indazole-3-carboxamide]
13 | 100 to 1000 nM | COc1cccc(-n2nc(C(=O)N(C)C(C)(C)C)c3c2-c2cc(OC(C)C)c(OC)cc2CC3)c1 [Example 8cc, N-tert-butyl-8-isopropoxy-7-methoxy-1-(3-methoxyphenyl)-N-methyl-4,5-dihydro-1H-benzo[g]indazole-3-carboxamide]
14 | 100 to 1000 nM | COc1cc2c(cc1OC(C)C)-c1c(c(C(=O)N(C)C(C)(C)C)nn1-c1cccc(C)c1)CC2 [Example 8cd, N-tert-butyl-8-isopropoxy-7-methoxy-N-methyl-1-m-tolyl-4,5-dihydro-1H-benzo[g]indazole-3-carboxamide]
15 | 100 to 1000 nM | COc1cc2c(cc1OC(C)C)-c1c(c(C(=O)N(C)C(C)(C)C)nn1-c1ccccc1Br)CC2 [Example 9ca, 1-(2-bromophenyl)-N-tert-butyl-8-isopropoxy-7-methoxy-N-methyl-4,5-dihydro-1H-benzo[g]indazole-3-carboxamide]
16 | 1000 to 10000 nM | CC=Cc1ccccc1-n1nc(C(=O)N(C)C(C)(C)C)c2c1-c1cc(OC(C)C)c(OC)cc1CC2 [Example 9cb, 1-(2-(2-methylvinyl)-phenyl)-N-tert-butyl-8-isopropoxy-7-methoxy-N-methyl-4,5-dihydro-1H-benzo[g]indazole-3-carboxamide]
17 | 1000 to 10000 nM | C=Cc1ccccc1-n1nc(C(=O)N(C)C(C)(C)C)c2c1-c1cc(OC(C)C)c(OC)cc1CC2 [Example 9cc, N-tert-butyl-8-isopropoxy-7-methoxy-N-methyl-1-(2-vinylphenyl)-4,5-dihydro-1H-benzo[g]indazole-3-carboxamide]
18 | 1000 to 10000 nM | COc1cc2c(cc1OC(C)C)-c1c(c(C(=O)N(C)C(C)(C)C)nn1-c1ccccc1-c1ccoc1)CC2 [Example 9cd, N-tert-butyl-1-(2-(furan-3-yl)phenyl)-8-isopropoxy-7-methoxy-N-methyl-4,5-dihydro-1H-benzo[g]indazole-3-carboxamide]
19 | 1000 to 10000 nM | COc1cc2c(cc1OC(C)C)-c1c(c(C(=O)N(C)C(C)(C)C)nn1-c1ccccc1C)CC2 [Example 10ca, N-tert-butyl-8-isopropoxy-7-methoxy-N-methyl-1-o-tolyl-4,5-dihydro-1H-benzo[g]lindazole-3-carboxamide]
20 | 1000 to 10000 nM | COc1cc2c(cc1OC(C)C)-c1c(c(C(=O)N(C)C(C)(C)C)nn1-c1ccccc1OC)CC2 [Example 10cc, N-tert-butyl-8-isopropoxy-7-methoxy-1-(2-methoxyphenyl)-N-methyl-4,5-dihydro-1H-benzo[g]indazole-3-carboxamide]
21 | 1000 to 10000 nM | COc1cc2c(cc1-c1ncco1)-c1c(c(C(=O)N(C)C(C)(C)C)nn1-c1ccccc1Cl)CC2 [Example 11ga, N-tert-butyl-1-(2-chlorophenyl)-7-methoxy-N-methyl-8-(oxazol-2-yl)-4,5-dihydro-1H-benzo[g]lindazole-3-carboxamide]
22 | 1000 to 10000 nM | COc1cc2c(cc1NC(=O)c1cocn1)-c1c(c(C(=O)N(C)C(C)(C)C)nn1-c1cccc(C)c1)CC2 [Example 12g]
23 | 1000 to 10000 nM | COc1cc2c(cc1NS(C)(=O)=O)-c1c(c(C(=O)N(C)C(C)(C)C)nn1-c1cccc(C)c1)CC2 [Example 12h]
24 | 1000 to 10000 nM | COc1cc2c(cc1NC(=O)CN1CCN(C)CC1)-c1c(c(C(=O)N(C)C(C)(C)C)nn1-c1cccc(C)c1)CC2 [Example 12ja, N-tert-butyl-7-methoxy-N-methyl-8-(2-(4-methylpiperazin-1-yl)acetamido)-1-m-tolyl-4,5-dihydro-1H-benzo[g]indazole-3-carboxamide]

Row | Compound | EC50
25 | COc1cc2c(cc1OC(C)C)-c1c(c(C(=O)N(C)C(C)(C)C)nn1-c1ccccc1F)CC2 [Example 10cb, N-tert-butyl-1-(2-fluorophenyl)-8-isopropoxy-7-methoxy-N-methyl-4,5-dihydro-1H-benzo[g]indazole-3-carboxamide] | 100 to 1000 nM

— patent EP2459551B1, “DIHYDROBENZOINDAZOLES” (Merck Sharp & Dohme B.V., priority 2009, dated 2011)
